From patent US9187773B2, “Method for improving acid tolerance of Propionibacterium acidipropionici” (Jiangnan University, priority 2012, dated 2015)

What was measured:
Type in all cases: cell-based, Propionibacterium acidipropionici
P. acidipropionici [1] = test: Acid tolerance of P. acidipropionici with amino acid addition (growth in seed medium containing PA); conditions: for Acid tolerance: seed medium with 2.5-5 g/L PA, 30° C., 40 h; for increase of the acid concentration that P. acidipropionici can tolerate: with addition of the amino acid, versus 2.5 g/L PA without amino acid
Procedure: The present invention provides a method for improving acid tolerance of P. acidipropionici by adding arginine and/or aspartic acid in the culture.
P. acidipropionici was first inoculated with sterile seed medium in anaerobic jars. The anaerobic jars were incubated at 30° C. for 60 h. To determine the effects of adding amino acids on acid tolerance of P. acidipropionici, the culture broth was transferred into anaerobic jars containing fresh seed medium with 2.5-5 g/L PA, 5-30 mM arginine and/or 5-30 mM aspartic acid added. The strains were then incubated at 30° C. for 40 h.
The P. acidipropionici was bought from China General Microbiological Culture Collection, and the strain code is CGMCC 1.2230.
The seed medium: 10 g/L yeast extract, 5 g/L tryptic soy broth, 1.5 g/L KH2PO4, 2.5 g/L K2HPO4, pH 7.0.
(§1) To determine the effects of adding arginine on acid tolerance of P. acidipropionici, the strains were inoculated with an inoculum size of 1% (v/v) into anaerobic jars containing 100 mL sterile seed medium. The anaerobic jars were incubated at 30° C. for 60 hours. And then, the culture broth was transferred into anaerobic jars containing fresh seed medium with 2.5-5 g/L PA and 0-30 mM arginine by an inoculum size of 1% (v/v) and incubated at 30° C. for 40 hours.
as §1, with “of adding aspartic acid on acid” for “of adding arginine on acid”, “jars containing (volume: 100 mL) 100 mL” for “jars containing 100 mL”, “0-30 mM aspartic acid by an” for “0-30 mM arginine by an”

P. acidipropionici [2] = test: PA production of P. acidipropionici with amino acid addition (fermentation, HPLC analysis)
P. acidipropionici [3] = test: as above; conditions: 30° C., 150 h
Procedure: To determine the effects of adding amino acids on PA production of P. acidipropionici, P. acidipropionici was inoculated with sterile seed medium in anaerobic jars. The anaerobic jars were incubated at 30° C. for 60 h. The culture broth was then transferred into anaerobic jars containing fresh culture medium. The PA fermentations with culture medium with or without addition of arginine and aspartic acid. The PA fermentations with culture medium without addition of arginine and aspartic acid were used as control.
The culture medium: 10 g/L yeast extract, 5 g/L tryptone, 1.5 g/L KH2PO4, 2.5 g/L K2HPO4, 25 g/L glycerol, 10 mg/L CoCl2, 30 g/L CaCO3, 5-30 mM arginine and/or 5-30 mM aspartic acid, pH 7.0.
(§2) To determine the effects of adding arginine on PA production of P. acidipropionici, the strains were inoculated with an inoculum size of 1% (v/v) into anaerobic jars containing 100 mL sterile seed medium. And then the seed culture was inoculated with an inoculum size of 10% (v/v) into anaerobic jars (volume: 100 mL) containing 50 mL culture medium into which certain amount of arginine was added. The anaerobic jars were incubated at 30° C. for 150 h.
(§3) Fermentation broth was centrifuged at 8000 rpm for 5 min, and the supernatant liquid was collected for analysis of PA. The supernatant liquid was diluted by 10 times with 3.68 mol/L sulphuric acid and then filtered with 0.22 μm pore size filter. The samples were analyzed by HPLC. As shown in Table 1 and FIG. 2, addition of amino acids increased PA production.
as §2, with “aspartic acid” for “arginine”, “hours.” for “h.”
as §3, with “Table 2” for “Table 1”

[4] = amino acid concentration 10 mM in culture medium
[5] = amino acid concentration 20 mM in culture medium
[6] = amino acid concentration 30 mM in culture medium

SMILES | Acid tolerance (P. acidipropionici [1]; amino acid concentration 10 mM) | Acid tolerance (P. acidipropionici [1]; amino acid concentration 20 mM) | Acid tolerance (P. acidipropionici [1]; amino acid concentration 30 mM) | increase of the acid concentration that P. acidipropionici can tolerate (P. acidipropionici [1]) | PA production (P. acidipropionici [2]; 30 mM added at the logarithmic phase of fermentation) | PA production (P. acidipropionici [2]; 30 mM added at the stable phase of fermentation) | PA production (P. acidipropionici [3]; [4]) | PA production (P. acidipropionici [3]; [5]) | PA production (P. acidipropionici [3]; [6]) | PA production (P. acidipropionici [2]; 20 mM added at the logarithmic phase of fermentation) | PA production (P. acidipropionici [2]; 20 mM added at the stable phase of fermentation)
N=C(N)NCCC[C@H](N)C(=O)O [Arginine, arginine] | 3 g/L | 4 g/L | 4 g/L | 60% | 12.60 g/L | 10.65 g/L | 10.66 g/L | 10.60 g/L | 13.99 g/L | – | –
N[C@@H](CC(=O)O)C(=O)O [Aspartic acid, aspartic acid] | 2.5 g/L | 3 g/L | 3 g/L | 20% | – | – | 12.54 g/L | 12.97 g/L | 12.87 g/L | 12.75 g/L | 10.66 g/L
